US20220016101A1 (ACADIA Pharmaceuticals Inc., priority 2018, published 2022)

Tested on: patients with MDD and an inadequate response to an SSRI or SNRI
Experiment: Massachusetts General Hospital Sexual Functioning Index (MGH-SFI), Study ACP-103-042
Type: in vivo, human
Source text: “Massachusetts General Hospital Sexual Functioning Index (MGH-SFI)” is described, for instance, in Labbate and Lare, 2001, Psychother Psychosom. 70(4):221-225. This is a patient facing questionnaire that quantifies sexual dysfunction into 5 functional domains (“interest in sex,” “sexual arousal,” “ability to achieve orgasm,” “ability to maintain erection” (males only), and “sexual satisfaction”). Patients rate each item using a 6-point scale ranging from 1 (good function) to 6 (poor function). High scores indicate poor sexual functioning. […] The determination of the subject's status and eligibility for randomization in Stage 2 was made in a double-blind manner. […] Sexual functioning was assessed using the Massachusetts General Hospital Sexual Functioning Index or MGH-SFI (Labbate and Lare, 2001, Psychother Psychosom. 70(4):221-225). This is a patient facing questionnaire that quantifies sexual dysfunction into 5 functional domains (“interest in sex,” “sexual arousal,” “ability to achieve orgasm,” “ability to maintain erection” [malesonly], and “sexual satisfaction”). Patients rate each item using a 6-point scale ranging from 1 (good function) to 6 (poor function). The time frame for this scale is the past month. This scale was administered at baseline and Week 5 in both stages of the study. High scores indicate poor sexual functioning. In ACP-103-042 the mean scores for MGH-SFI at Baseline was calculated over all 5 domains for males and the 4 domains for females. For MGH-SFI (follow-up version) at Study Weeks 5 and 10, the mean was calculated in the same way as MGH-SFI at Baseline. […] Tables 10-27 summarize the detailed data of MGH-SFI individual items of the overall study group (Tables 10-15), the subgroup of age of <=50 (Tables 16-21) and the subgroup of age of >50 (Table 21-26). In Tables 9-26, ANCOVA=analysis of covariance; OC=observed cases; LSM=least squares mean; CI=confidence interval; SD=standard deviation; SE=standard error. Stage 1: Baseline=Study Week 0, Week 5=Study Week 5; Stage 2: Baseline=Study Week 5, Week 5=Study Weeks 10. LSM from the stage-specific ANCOVA analysis with the change from baseline as the outcome, treatment group as a factor, and the corresponding Baseline value as a covariate. 2-sided p-value for treatment difference from the stage-specific ANCOVA analysis. An treatment effect size (Cohen's d) is calculated using the formula: Effect Size=Least Square mean difference between PIM and PBO/SD. The corresponding 95% confidence interval for an effect size is calculated based on the theoretical probability distribution of the effect size. […] Tables 10-15 and 28-38 summarize the detailed data of MGH-SFI individual items of the overall study group (Tables 10-15), the female subgroup (Tables 33-37) and the male subgroup (Table 38-43). An treatment effect size (Cohen's d) is calculated using the formula: Effect Size=Least Square mean difference between PIM and PBO/SD. The corresponding 95% confidence interval for an effect size is calculated based on the theoretical probability distribution of the effect size. In Tables 10-15 and 28-38, ANCOVA=analysis of covariance; OC=observed cases; LSM=least squares mean; CI=confidence interval; SD=standard deviation; SE=standard error. Stage 1: Baseline=Study Week 0, Week 5=Study Week 5; Stage 2: Baseline=Study Week 5, Week 5=Study Weeks 10. LSM from the stage-specific ANCOVA analysis with the change from baseline as the outcome, treatment group as a factor, and the corresponding Baseline value as a covariate. 2-sided p-value for treatment difference from the stage-specific ANCOVA analysis. An treatment effect size (Cohen's d) is calculated using the formula: Effect Size=Least Square mean difference between PIM and PBO/SD. The corresponding 95% confidence interval for an effect size is calculated based on the theoretical probability distribution of the effect size.

[1] = female subgroup, Stage 2, positive = pimavanserin better than placebo
[2] = male subgroup, Stage 1 (Study Week 0 to 5), PIM 34 mg
[3] = male subgroup, Stage 1 (Study Week 5), PIM 34 mg
[4] = male subgroup, Stage 1, PIM 34 mg
[5] = male subgroup, Stage 1, PIM 34 mg vs placebo, change from baseline to Week 5
[6] = male subgroup, Stage 1, PIM 34 mg, Week 5
[7] = male subgroup, Stage 2 (Study Week 5 to 10), PIM 34 mg
[8] = male subgroup, Stage 2 (Study Week 10), PIM 34 mg

CC(C)COc1ccc(CNC(=O)N(Cc2ccc(F)cc2)C2CCN(C)CC2)cc1 [pimavanserin, N-(4-Fluorophenylmethyl)-N-(1-methylpiperidin-4-yl)-N′-(4-(2-methylpropyloxy)phenylmethyl)carbamide]
MGH-SFI 05: Overall Sexual Satisfaction, Effect Size (Cohen's d) [1]: 0.227 | MGH-SFI 06: Overall Improvement Since Last Medication Change, Effect Size (Cohen's d) [1]: 0.167 | MGH-SFI 01: Interest in Sex, Change from Baseline to Week 5 Mean (SE) [2]: −0.6 (1.04) | MGH-SFI 01: Interest in Sex, Change from Baseline to Week 5 Median [2]: −1.0 | MGH-SFI 01: Interest in Sex, Week 5 Mean (SE) [3]: 4.1 (0.63) | MGH-SFI 01: Interest in Sex, Week 5 Median [3]: 5.0 | MGH-SFI Item 02: Ability to Get Sexually Aroused or Excited, Change from Baseline to Week 5, Mean (SE) [4]: −0.7 (0.61) | MGH-SFI Item 02: Ability to Get Sexually Aroused or Excited, Change from Baseline to Week 5, Median [4]: 0.0 | MGH-SFI Item 03: Ability to Achieve Orgasm, Change from Baseline to Week 5, Mean (SE) [4]: −0.4 (0.61) | MGH-SFI Item 03: Ability to Achieve Orgasm, Change from Baseline to Week 5, Median [4]: 0.0 | MGH-SFI Item 04: (Men) Ability to Get and Maintain an Erection, Change from Baseline to Week 5, Mean (SE) [4]: −0.3 (0.78) | MGH-SFI Item 04: (Men) Ability to Get and Maintain an Erection, Change from Baseline to Week 5, Median [4]: 0.0 | MGH-SFI Item 05: Overall Sexual Satisfaction, Change from Baseline to Week 5, Mean (SE) [4]: −0.6 (0.81) | MGH-SFI Item 05: Overall Sexual Satisfaction, Change from Baseline to Week 5, Median [4]: 0.0 | MGH-SFI Item 06: Overall Improvement Since Last Medication Change, Effect Size (Cohen's d) (male subgroup, Stage 1, PIM 34 mg vs placebo, Week 5): 0.257 | MGH-SFI Item 02: Ability to Get Sexually Aroused or Excited, Effect Size (Cohen's d) [5]: 0.358 | MGH-SFI Item 03: Ability to Achieve Orgasm, Effect Size (Cohen's d) [5]: 0.053 | MGH-SFI Item 04: (Men) Ability to Get and Maintain an Erection, Effect Size (Cohen's d) [5]: 0.105 | MGH-SFI Item 05: Overall Sexual Satisfaction, Effect Size (Cohen's d) [5]: 0.047 | MGH-SFI Item 02: Ability to Get Sexually Aroused or Excited, Week 5, Mean (SE) [6]: 3.7 (0.68) | MGH-SFI Item 02: Ability to Get Sexually Aroused or Excited, Week 5, Median [6]: 4.0 | MGH-SFI Item 03: Ability to Achieve Orgasm, Week 5, Mean (SE) [6]: 4.1 (0.74) | MGH-SFI Item 03: Ability to Achieve Orgasm, Week 5, Median [6]: 5.0 | MGH-SFI Item 04: (Men) Ability to Get and Maintain an Erection, Week 5, Mean (SE) [6]: 3.9 (0.70) | MGH-SFI Item 04: (Men) Ability to Get and Maintain an Erection, Week 5, Median [6]: 3.0 | MGH-SFI Item 05: Overall Sexual Satisfaction, Week 5, Mean (SE) [6]: 4.6 (0.69) | MGH-SFI Item 05: Overall Sexual Satisfaction, Week 5, Median [6]: 5.0 | MGH-SFI Item 06: Overall Improvement Since Last Medication Change, Week 5, Mean (SE) [6]: 3.3 (0.64) | MGH-SFI Item 06: Overall Improvement Since Last Medication Change, Week 5, Median [6]: 3.0 | MGH-SFI 01: Interest in Sex, Effect Size (Cohen's d) (male subgroup, Stage 1, positive = pimavanserin better than placebo): 0.104 | MGH-SFI 01: Interest in Sex, Change from Baseline to Week 5 Mean (SE) [7]: −0.8 (0.32) | MGH-SFI 01: Interest in Sex, Change from Baseline to Week 5 Median [7]: −1.0 | MGH-SFI 01: Interest in Sex, Week 5 Mean (SE) [8]: 3.6 (0.47) | MGH-SFI 01: Interest in Sex, Week 5 Median [8]: 4.0 | MGH-SFI Item 02: Ability to Get Sexually Aroused or Excited, Change from Baseline to Week 5, Mean (SE) (male subgroup, Stage 2, PIM 34 mg): −0.6 (0.29)
